{
  "source": "paper PMC10439185",
  "about": "(Cell Reports Medicine, 2023)",
  "key": {"[1]": {"molecular_target": "T1, PPT1 (Mus musculus, UniProt O88531)", "T1 sequence (O88531 28-306)": "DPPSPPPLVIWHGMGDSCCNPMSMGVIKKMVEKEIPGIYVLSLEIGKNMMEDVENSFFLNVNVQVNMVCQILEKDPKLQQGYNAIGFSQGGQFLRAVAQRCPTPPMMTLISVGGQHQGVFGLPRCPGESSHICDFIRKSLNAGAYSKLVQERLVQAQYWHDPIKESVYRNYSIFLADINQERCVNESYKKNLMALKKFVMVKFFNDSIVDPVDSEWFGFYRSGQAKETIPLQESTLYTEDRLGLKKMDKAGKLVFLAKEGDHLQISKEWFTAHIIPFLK", "experiment": "microscale thermophoresis", "type": "binding"}, "[2]": {"molecular_target": "T2, PPT1 (endogenous, BMDMs) (Mus musculus, UniProt O88531)", "T2 sequence (O88531 28-306)": "T1 sequence (O88531 28-306)", "experiment": "cellular thermal shift assay, immunoblot", "type": "cell-based", "settings": "intact BMDMs, 37-62 °C, 3 min"}},
  "data": [
    {"compound": "O=C(O)C(=O)Cc1ccccc1", "note": "[phenylpyruvate]", "values": [
      {"measurement": "Kd", "setting": "[1]", "value": 863, "unit": "µM"},
      {"measurement": "thermal shift", "setting": "[2]", "value": "phenylpyruvate treatment significantly changed PPT1 protein stability after heating"}
    ]}
  ]
}
